Measured values from US20250073340A1, “SPIROCYCLIC MDM2 MODULATOR AND USES THEREOF” (Newave Pharmaceutical Inc., priority 2021, published 2025).

Legend:
[1] = target: MDM2 (Homo sapiens (Human), UniProt Q00987); test: In vitro MDM2 HTRF assay (inhibition of p53-MDM2 interaction); type: binding; conditions: GST-MDM2 / biotinylated p53 peptide
[2] = test system: BCL-2-dependent acute lymphoblastic leukemia (ALL) cell line RS4;11 overexpressing Bcl-2 G101V; test: cells; type: cell-based; conditions: Homo sapiens, RS4-11; about 72 hours, ATPlite luminescence; read-out: RS4;11-G101V IC50
Experimental: Biological Example 2: In vitro Anti-proliferation Assay in BCL-2-dependent acute lymphoblastic leukemia (ALL) cell line RS4; 11 overexpressing Bcl-2 G101V
Cell antiproliferation was assayed by PerkinElmer ATPlite™ Luminescence Assay System. Briefly, the various test cancer cell lines were plated at a density of about 1×10^4 cells per well in Costar 96-well plates, and were incubated with different concentrations of compounds for about 72 hours in medium supplemented with 5% FBS or 10% normal human serum (NHS). One lyophilized substrate solution vial was then reconstituted by adding 5 mL of substrate buffer solution, and was agitated gently until the solution was homogeneous. About 50 μL of mammalian cell lysis solution was added to 100 μL of cell suspension per well of a microplate, and the plate was shaken for about five minutes in an orbital shaker at −700 rpm. This procedure was used to lyse the cells and to stabilize the ATP. Next, 50 μL substrate solution was added to the wells and microplate was shaken for five minutes in an orbital shaker at −700 rpm. Finally, the luminescence was measured by a PerkinElmer TopCount® Microplate Scintillation Counter. Such assays, carried out with a range of doses of test compounds, allowed the determination of the cellular anti-antiproliferative IC50 of the compounds of the present invention.

Sequence of MDM2 (Q00987 whole entry): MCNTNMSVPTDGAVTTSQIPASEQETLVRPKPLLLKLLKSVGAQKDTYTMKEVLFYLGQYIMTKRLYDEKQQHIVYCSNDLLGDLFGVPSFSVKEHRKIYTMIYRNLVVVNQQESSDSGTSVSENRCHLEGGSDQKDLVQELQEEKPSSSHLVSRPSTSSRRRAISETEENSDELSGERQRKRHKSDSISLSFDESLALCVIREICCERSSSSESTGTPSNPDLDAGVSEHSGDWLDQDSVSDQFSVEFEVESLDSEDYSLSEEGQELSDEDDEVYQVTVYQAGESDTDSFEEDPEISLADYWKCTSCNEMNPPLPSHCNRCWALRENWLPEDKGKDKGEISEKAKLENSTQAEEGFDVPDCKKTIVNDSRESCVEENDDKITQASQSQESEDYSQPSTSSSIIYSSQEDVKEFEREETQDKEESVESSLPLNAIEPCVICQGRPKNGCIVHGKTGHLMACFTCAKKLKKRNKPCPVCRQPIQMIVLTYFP

| Compound | IC50 [1] | IC50 [2] |
| --- | --- | --- |
| COc1cc(C(=O)N2CCC[C@@H](CC#Cc3cccc4c3CN(C3CCC(=O)NC3=O)C4=O)C2)ccc1NC(=O)[C@@H]1N[C@@H](CC(C)(C)C)[C@@]2(CNc3cc(Cl)ccc32)[C@H]1c1cccc(Cl)c1F (stereo partly drawn) [Example 25, (2′S,3S,4′S,5′R)-6-chloro-4′-(3-chloro-2-fluorophenyl)-N-(4-((3S)-3-(3-(2-(2,6-dioxopiperidin-3-yl)-1-oxoisoindolin-4-yl)prop-2-yn-1-yl)piperidine-1-carbonyl)-2-methoxyphenyl)-2′-neopentylspiro[indoline-3,3′-pyrrolidine]-5′-carboxamide] | 3.72 nM | 21.6 nM |
| COc1cc(N2CCC([C@@H]3C[C@H]3C#Cc3cccc4c3CN(C3CCC(=O)NC3=O)C4=O)CC2)ccc1NC(=O)[C@@H]1N[C@@H](CC(C)(C)C)[C@@]2(CNc3cc(Cl)ccc32)[C@H]1c1cccc(Cl)c1F (stereo partly drawn) [Example 26, (2′S,3S,4′S,5′R)-6-chloro-4′-(3-chloro-2-fluorophenyl)-2′-(2,2-dimethylpropyl)-N-(4-{4-[(1S,2R)-2-{2-[2-(2,6-dioxopiperidin-3-yl)-1-oxo-3H-isoindol-4-yl]ethynyl}cyclopropyl]piperidin-1-yl}-2-methoxyphenyl)-1,2-dihydrospiro[indole-3,3′-pyrrolidine]-5′-carboxamide] | 46.8 nM | 448 nM |
| COc1cc(N2CCC([C@H]3C[C@@H]3C#Cc3cccc4c3CN(C3CCC(=O)NC3=O)C4=O)CC2)ccc1NC(=O)[C@@H]1N[C@@H](CC(C)(C)C)[C@@]2(CNc3cc(Cl)ccc32)[C@H]1c1cccc(Cl)c1F (stereo partly drawn) [Example 27, (2′S,3S,4′S,5′R)-6-chloro-4′-(3-chloro-2-fluorophenyl)-2′-(2,2-dimethylpropyl)-N-(4-{4-[(1R,2S)-2-{2-[2-(2,6-dioxopiperidin-3-yl)-1-oxo-3H-isoindol-4-yl]ethynyl}cyclopropyl]piperidin-1-yl}-2-methoxyphenyl)-1,2-dihydrospiro[indole-3,3′-pyrrolidine]-5′-carboxamide] | 16.5 nM | > 1000 nM |
| COc1cc(C(=O)N[C@H]2CCC[C@@H](C#Cc3cccc4c3CN(C3CCC(=O)NC3=O)C4=O)C2)ccc1NC(=O)[C@@H]1N[C@@H](CC(C)(C)C)[C@@]2(CNc3cc(Cl)ccc32)[C@H]1c1cccc(Cl)c1F (stereo partly drawn) [Example 32, (2′S,3S,4′S,5′R)-6-chloro-4′-(3-chloro-2-fluorophenyl)-2′-(2,2-dimethylpropyl)-N-(4-{[(1S,3R)-3-{2-[2-(2,6-dioxopiperidin-3-yl)-1-oxo-3H-isoindol-4-yl]ethynyl}cyclohexyl]carbamoyl}-2-methoxyphenyl)-1,2-dihydrospiro[indole-3,3′-pyrrolidine]-5′-carboxamide] | 2.59 nM | 83.2 nM |
| COc1cc(C(=O)N[C@@H]2CCC[C@H](C#Cc3cccc4c3CN(C3CCC(=O)NC3=O)C4=O)C2)ccc1NC(=O)[C@@H]1N[C@@H](CC(C)(C)C)[C@@]2(CNc3cc(Cl)ccc32)[C@H]1c1cccc(Cl)c1F (stereo partly drawn) [Example 33, (2′S,3S,4′S,5′R)-6-chloro-4′-(3-chloro-2-fluorophenyl)-2′-(2,2-dimethylpropyl)-N-(4-{[(1R,3S)-3-{2-[2-(2,6-dioxopiperidin-3-yl)-1-oxo-3H-isoindol-4-yl]ethynyl}cyclohexyl]carbamoyl}-2-methoxyphenyl)-1,2-dihydrospiro[indole-3,3′-pyrrolidine]-5′-carboxamide] | 2.29 nM | 104 nM |
| COc1cc(C(=O)N[C@@H]2CCC[C@@H](C#Cc3cccc4c3CN(C3CCC(=O)NC3=O)C4=O)C2)ccc1NC(=O)[C@@H]1N[C@@H](CC(C)(C)C)[C@@]2(CNc3cc(Cl)ccc32)[C@H]1c1cccc(Cl)c1F (stereo partly drawn) [Example 34, (2′S,3S,4′S,5′R)-6-chloro-4′-(3-chloro-2-fluorophenyl)-2′-(2,2-dimethylpropyl)-N-(4-{[(1R,3R)-3-{2-[2-(2,6-dioxopiperidin-3-yl)-1-oxo-3H-isoindol-4-yl]ethynyl}cyclohexyl]carbamoyl}-2-methoxyphenyl)-1,2-dihydrospiro[indole-3,3′-pyrrolidine]-5′-carboxamide] | 2 nM | 122 nM |
| COc1cc(C(=O)N[C@H]2CCC[C@H](C#Cc3cccc4c3CN(C3CCC(=O)NC3=O)C4=O)C2)ccc1NC(=O)[C@@H]1N[C@@H](CC(C)(C)C)[C@@]2(CNc3cc(Cl)ccc32)[C@H]1c1cccc(Cl)c1F (stereo partly drawn) [Example 35, (2′S,3S,4′S,5′R)-6-chloro-4′-(3-chloro-2-fluorophenyl)-2′-(2,2-dimethylpropyl)-N-(4-{[(1S,3S)-3-{2-[2-(2,6-dioxopiperidin-3-yl)-1-oxo-3H-isoindol-4-yl]ethynyl}cyclohexyl]carbamoyl}-2-methoxyphenyl)-1,2-dihydrospiro[indole-3,3′-pyrrolidine]-5′-carboxamide] | 3.74 nM | 82.7 nM |
| COc1cc(C(=O)N2CCCC[C@@H]2CCC#Cc2cccc3c2CN([C@@H]2CCC(=O)NC2=O)C3=O)ccc1NC(=O)[C@@H]1N[C@@H](CC(C)(C)C)[C@@]2(CNc3cc(Cl)ccc32)[C@H]1c1cccc(Cl)c1F [Example 36, (2′S,3S,4′S,5′R)-6-chloro-4′-(3-chloro-2-fluorophenyl)-2′-(2,2-dimethylpropyl)-N-{4-[(2R)-2-(4-{2-[(3R)-2,6-dioxopiperidin-3-yl]-1-oxo-3H-isoindol-4-yl}but-3-yn-1-yl)piperidine-1-carbonyl]-2-methoxyphenyl}-1,2-dihydrospiro[indole-3,3′-pyrrolidine]-5′-carboxamide] | 2.03 nM | 35.4 nM |
| COc1cc(C(=O)N2CCCC[C@@H]2CCC#Cc2cccc3c2CN([C@H]2CCC(=O)NC2=O)C3=O)ccc1NC(=O)[C@@H]1N[C@@H](CC(C)(C)C)[C@@]2(CNc3cc(Cl)ccc32)[C@H]1c1cccc(Cl)c1F [Example 37, (2′S,3S,4′S,5′R)-6-chloro-4′-(3-chloro-2-fluorophenyl)-2′-(2,2-dimethylpropyl)-N-{4-[(2R)-2-(4-{2-[(3S)-2,6-dioxopiperidin-3-yl]-1-oxo-3H-isoindol-4-yl}but-3-yn-1-yl)piperidine-1-carbonyl]-2-methoxyphenyl}-1,2-dihydrospiro[indole-3,3′-pyrrolidine]-5′-carboxamide] | 1.95 nM | 34.4 nM |
| COc1cc(C(=O)N2CCCC[C@H]2CCC#Cc2cccc3c2CN([C@@H]2CCC(=O)NC2=O)C3=O)ccc1NC(=O)[C@@H]1N[C@@H](CC(C)(C)C)[C@@]2(CNc3cc(Cl)ccc32)[C@H]1c1cccc(Cl)c1F [Example 38, (2′S,3S,4′S,5′R)-6-chloro-4′-(3-chloro-2-fluorophenyl)-2′-(2,2-dimethylpropyl)-N-{4-[(2S)-2-(4-{2-[(3R)-2,6-dioxopiperidin-3-yl]-1-oxo-3H-isoindol-4-yl}but-3-yn-1-yl)piperidine-1-carbonyl]-2-methoxyphenyl}-1,2-dihydrospiro[indole-3,3′-pyrrolidine]-5′-carboxamide] | 3.82 nM | 67.9 nM |
| COc1cc(C(=O)N2CCCC[C@H]2CCC#Cc2cccc3c2CN([C@H]2CCC(=O)NC2=O)C3=O)ccc1NC(=O)[C@@H]1N[C@@H](CC(C)(C)C)[C@@]2(CNc3cc(Cl)ccc32)[C@H]1c1cccc(Cl)c1F [Example 39, (2′S,3S,4′S,5′R)-6-chloro-4′-(3-chloro-2-fluorophenyl)-2′-(2,2-dimethylpropyl)-N-{4-[(2S)-2-(4-{2-[(3S)-2,6-dioxopiperidin-3-yl]-1-oxo-3H-isoindol-4-yl}but-3-yn-1-yl)piperidine-1-carbonyl]-2-methoxyphenyl}-1,2-dihydrospiro[indole-3,3′-pyrrolidine]-5′-carboxamide] | 2.67 nM | 127 nM |
| COc1cc(C(=O)N2CCC3(CC2)CC(C#Cc2cccc4c2CN(C2CCC(=O)NC2=O)C4=O)C3)ccc1NC(=O)[C@@H]1N[C@@H](CC(C)(C)C)[C@@]2(CNc3cc(Cl)ccc32)[C@H]1c1cccc(Cl)c1F (stereo partly drawn) [Example 42, (2′S,3S,4′S,5′R)-6-chloro-4′-(3-chloro-2-fluorophenyl)-N-(4-(2-((2-(2,6-dioxopiperidin-3-yl)-1-oxoisoindolin-4-yl)ethynyl)-7-azaspiro[3.5]nonane-7-carbonyl)-2-methoxyphenyl)-2′-neopentylspiro[indoline-3,3′-pyrrolidine]-5′-carboxamide] | 4.51 nM | 99.1 nM |
| COc1cc(C(=O)N2CCC3(CC2)C[C@H]3C#Cc2cccc3c2CN(C2CCC(=O)NC2=O)C3=O)ccc1NC(=O)[C@@H]1N[C@@H](CC(C)(C)C)[C@@]2(CNc3cc(Cl)ccc32)[C@H]1c1cccc(Cl)c1F (stereo partly drawn) [Example 43, (2′S,3S,4′S,5′R)-6-chloro-4′-(3-chloro-2-fluorophenyl)-2′-(2,2-dimethylpropyl)-N-{4-[(1R)-1-{2-[2-(2,6-dioxopiperidin-3-yl)-1-oxo-3H-isoindol-4-yl]ethynyl}-6-azaspiro[2.5]octane-6-carbonyl]-2-methoxyphenyl}-1,2-dihydrospiro[indole-3,3′-pyrrolidine]-5′-carboxamide] | 4.67 nM | 28.3 nM |
